Consider 8 molecules from patent US9156877B2, “17-hydroxy-17-pentafluorethyl-estra-4,9(10)-dien-11-benzylidene derivatives, methods for the production thereof and use thereof for treating diseases” (Bayer Intellectual Property GmbH, priority 2009, dated 2015).

Converted amounts (≈) assume the structure as drawn.

Series [1] has as its target T1, human progesterone receptor A (Homo sapiens, UniProt P06401).
T1 construct: expressed in transfected cells; host or cells: SK-N-MC human neuroblastoma cells, stably transfected with pRChPR-A-neo and pMMTV-LUC
T1 sequence (P06401 1-769 isoform P06401-2): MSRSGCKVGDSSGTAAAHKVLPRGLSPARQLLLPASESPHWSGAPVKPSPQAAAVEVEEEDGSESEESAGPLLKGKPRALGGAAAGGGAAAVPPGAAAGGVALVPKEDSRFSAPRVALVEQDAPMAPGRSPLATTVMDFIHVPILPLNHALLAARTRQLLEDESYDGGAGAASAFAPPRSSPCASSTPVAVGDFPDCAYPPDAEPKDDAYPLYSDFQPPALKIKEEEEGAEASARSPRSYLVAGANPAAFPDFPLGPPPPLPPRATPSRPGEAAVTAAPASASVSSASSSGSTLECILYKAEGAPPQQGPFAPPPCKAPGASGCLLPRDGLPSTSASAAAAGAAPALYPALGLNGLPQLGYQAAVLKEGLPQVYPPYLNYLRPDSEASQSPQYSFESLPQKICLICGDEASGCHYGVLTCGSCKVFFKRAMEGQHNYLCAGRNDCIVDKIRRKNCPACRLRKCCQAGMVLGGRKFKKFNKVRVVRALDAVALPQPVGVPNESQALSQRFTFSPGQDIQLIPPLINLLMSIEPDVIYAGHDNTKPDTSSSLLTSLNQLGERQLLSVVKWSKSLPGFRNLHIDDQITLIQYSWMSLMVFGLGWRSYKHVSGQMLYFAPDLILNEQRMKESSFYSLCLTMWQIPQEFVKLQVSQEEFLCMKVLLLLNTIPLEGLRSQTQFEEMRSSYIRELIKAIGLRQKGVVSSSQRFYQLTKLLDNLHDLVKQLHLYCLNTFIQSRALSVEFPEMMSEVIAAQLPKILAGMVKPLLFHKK
Nature of the series: Progesterone receptor-antagonistic action in stably transfected SK-N-MC cells with MMTV-LUC reporter (PR-A). Format: cell-based. To be noted: antagonistic potency against 0.1 nmol/l promegestone, 24 hours, luciferase. A digest of the protocol:
(§1)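 SK-N-MC neuroblastoma cells stably expressing human PR-A or PR-B plus MMTV-LUC reporter, treated 24 h with test compound (0.01 nmol/l–[…]). Antagonist mode used co-treatment with 0.1 nmol/l promegestone; luciferase in lysates read as RLU, expressed as % efficacy and IC50/EC50.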

Series [2] addresses T2, human progesterone receptor B (Homo sapiens, UniProt P06401).
T2 construct: expressed in transfected cells; host or cells: SK-N-MC human neuroblastoma cells, stably transfected with pRChPR-B-neo and pMMTV-LUC
T2 sequence (P06401 1-933): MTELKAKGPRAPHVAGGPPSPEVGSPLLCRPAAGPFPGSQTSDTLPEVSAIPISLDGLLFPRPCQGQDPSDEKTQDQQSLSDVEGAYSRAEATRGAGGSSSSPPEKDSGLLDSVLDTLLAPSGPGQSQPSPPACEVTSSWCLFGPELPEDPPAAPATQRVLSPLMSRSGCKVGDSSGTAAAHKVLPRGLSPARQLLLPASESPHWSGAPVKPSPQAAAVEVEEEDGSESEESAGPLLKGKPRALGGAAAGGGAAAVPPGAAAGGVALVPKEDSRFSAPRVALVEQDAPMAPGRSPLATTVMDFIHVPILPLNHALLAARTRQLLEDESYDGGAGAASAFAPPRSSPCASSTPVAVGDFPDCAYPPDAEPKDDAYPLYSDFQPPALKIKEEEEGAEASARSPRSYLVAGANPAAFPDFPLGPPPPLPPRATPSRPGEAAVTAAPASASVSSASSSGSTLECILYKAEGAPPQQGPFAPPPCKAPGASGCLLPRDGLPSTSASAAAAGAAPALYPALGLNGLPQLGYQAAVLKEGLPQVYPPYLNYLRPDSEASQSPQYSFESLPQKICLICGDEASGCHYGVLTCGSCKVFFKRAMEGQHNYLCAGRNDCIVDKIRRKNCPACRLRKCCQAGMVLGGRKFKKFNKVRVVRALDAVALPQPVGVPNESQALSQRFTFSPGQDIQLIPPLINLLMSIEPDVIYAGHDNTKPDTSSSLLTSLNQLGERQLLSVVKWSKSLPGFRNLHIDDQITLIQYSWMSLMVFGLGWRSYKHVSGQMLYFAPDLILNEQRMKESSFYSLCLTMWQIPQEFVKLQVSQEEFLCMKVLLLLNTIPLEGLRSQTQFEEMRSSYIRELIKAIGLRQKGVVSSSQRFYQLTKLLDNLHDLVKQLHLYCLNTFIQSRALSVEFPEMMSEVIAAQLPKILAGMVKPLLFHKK
Description: Progesterone receptor-antagonistic action in stably transfected SK-N-MC cells with MMTV-LUC reporter (PR-B). In kind it is cell-based. Particulars: antagonistic potency against 0.1 nmol/l promegestone, 24 hours, luciferase. The method in brief:
as §1

Series [3] in a line: Metabolic stability in human liver microsomes. To be noted: for Predicted clearance [l/h/kg] Human: 1 μM, well-stirred model. Format: in vitro ADME. As to the method: (§2) Determination of Metabolic Stability in Human and Rat Liver Microsomes
Isolated human liver microsomes (HLM) were used to assess the metabolic stability of compounds of general formula I.
(§3) The incubations were conducted with 2.4 ml of HLM solution (protein content 0.5 mg/ml), 30 μl of the test compound (final concentration 1 μM) and 0.6 ml of the cofactor mixture (═NADPH-generating system composed of 3 IU glucose-6-phosphate dehydrogenase, 14.6 mg glucose-6-phosphate, 1.2 mg NADP) at 37° C. in 100 mM phosphate buffer at pH 7.4. Samples were taken at 6 time points (2-60 min) and precipitated with an equal volume of methanol, and the recovery of the test substances used in the supernatant was determined by LC-MS/MS analysis. The half-life of substance degradation determined therefrom was used to calculate what is called the intrinsic clearance of the substance in the liver microsome preparation. […] In addition, under the assumptions that (i) absorption of the test substance is 100%, and (ii) the first pass is completely reflected by liver microsome metabolism, a maximum oral bioavailability (Fmax) was calculated.

The nature of series [4]: Metabolic stability in rat liver microsomes. Format: in vitro ADME. To be noted: for Predicted clearance [l/h/kg] Rat: well-stirred model. Here is the method: as §2, §3
A short description of series [5]: Solubility in aqueous medium at pH 7.4. Format: physicochemical. Particulars: for solubility: aqueous medium, pH 7.4, aqueous buffer. The text has this:
In addition, some compounds have an unusually good solubility, for this active ingredient class, in aqueous medium under physiological conditions (Table 2).

`C=CC=Cc1ccc([C@H]2C[C@@]3(C)C(CC[C@@]3(O)C(F)(F)C(F)(F)F)C3CCC4=CC(=O)CCC4=C32)cc1` (mixture of isomers) [Example 18, (8S,11R,13S,14S,17S)-11-[((E/Z)-4-buta-1,3-dienyl)phenyl]-17-hydroxy-13-methyl-17-pentafluoroethyl-1,2,6,7,8,11,12,13,14,15,16,17-dodecahydrocyclopenta[a]phenanthren-3-one] displayed a concentration for half-maximal inhibition (IC50) in series [1] of 0.01 nM. In series [2], half-maximal inhibition (IC50) required 0.02 nM. Also, in series [3], the “Predicted Fmax [%] (maximum oral bioavailability) Human” value was 36% and the “Predicted clearance [l/h/kg] Human” value was 0.84 L/h/kg. In series [4], the “Predicted Fmax [%] (maximum oral bioavailability) Rat” value is on record as 57% and the “Predicted clearance [l/h/kg] Rat” value was 1.8 L/h/kg. In addition, the solubility in series [5] worked out at 6 µg/mL.

In the case of `C=Cc1ccc([C@H]2C[C@@]3(C)[C@@H](CC[C@@]3(O)C(F)(F)C(F)(F)F)[C@@H]3CCC4=CC(=O)CCC4=C32)cc1` [Example 1, (8S,11R,13S,14S,17S)-17-hydroxy-13-methyl-17-pentafluoroethyl-11-(4-vinylphenyl)-1,2,6,7,8,11,12,13,14,15,16,17-dodecahydrocyclopenta[a]phenanthren-3-one], the IC50 in series [2] amounted to 0.012 nM. For the same molecule, the “Predicted clearance [l/h/kg] Human” value in series [3] is 0.90 L/h/kg. In addition, the “Predicted clearance [l/h/kg] Rat” value in series [4] was 1.9 L/h/kg. Besides, the concentration in solution in series [5] (solubility) came to 6 µg/mL (≈ 12.2 µM).

In turn, `C[C@]12C[C@H](c3ccc(/C=C/CO)cc3)C3=C4CCC(=O)C=C4CC[C@H]3[C@@H]1CC[C@@]2(O)C(F)(F)C(F)(F)F` [Example 2, (8S,11R,13S,14S,17S)-17-hydroxy-11-[4-((E)-3-hydroxypropenyl)phenyl]-13-methyl-17-pentafluoroethyl-1,2,6,7,8,11,12,13,14,15,16,17-dodecahydrocyclopenta[a]phenanthren-3-one] displayed an IC50 in series [1] of 0.14 nM. The molecule also yielded an IC50 in series [2] of 0.25 nM. Further, in series [3], the “Predicted Fmax [%] (maximum oral bioavailability) Human” value was 69% and the “Predicted clearance [l/h/kg] Human” value is 0.41 L/h/kg. Further, in series [4], the “Predicted Fmax [%] (maximum oral bioavailability) Rat” value is 69% and the “Predicted clearance [l/h/kg] Rat” value was 1.3 L/h/kg. For the same molecule, the solubility in series [5] was found to be 11 µg/mL (≈ 21.1 µM).

In series [1], `C[C@]12C[C@H](c3ccc(/C=C/CC(C(=O)O)C(=O)O)cc3)C3=C4CCC(=O)C=C4CC[C@H]3[C@@H]1CC[C@@]2(O)C(F)(F)C(F)(F)F` [Example 5, 2-{(E)-3-[4-((8S,11R,13S,14S,17S)-17-hydroxy-13-methyl-3-oxo-17-pentafluoroethyl-2,3,6,7,8,11,12,13,14,15,16,17-dodecahydro-1H-cyclopenta[a]phenanthren-11-yl)phenyl]allyl}malonic acid] yielded a concentration for half-maximal inhibition (IC50) of 0.4 nM. In series [2], this molecule came in with an IC50 of 0.13 nM. Moreover, in series [3], the “Predicted Fmax [%] (maximum oral bioavailability) Human” value is 100% and the “Predicted clearance [l/h/kg] Human” value is 0.00 L/h/kg. Moreover, in series [4], the “Predicted Fmax [%] (maximum oral bioavailability) Rat” value is listed as 88% and the “Predicted clearance [l/h/kg] Rat” value was 0.5 L/h/kg. Besides, the “solubility (in words)” value in series [5] (aqueous medium under physiological conditions) is “improved”. In series [5], this molecule gave a solubility of 203 µg/mL (≈ 334 µM).

For the molecule `C[C@]12C[C@H](c3ccc(/C=C/c4ccccn4)cc3)C3=C4CCC(=O)C=C4CC[C@H]3[C@@H]1CC[C@@]2(O)C(F)(F)C(F)(F)F` [Example 6, (8S,11R,13S,14S,17S)-17-hydroxy-13-methyl-17-pentafluoroethyl-11-[4-((E)-2-pyridin-2-ylvinyl)phenyl]-1,2,6,7,8,11,12,13,14,15,16,17-dodecahydrocyclopenta[a]phenanthren-3-one], in series [1], the half-maximal inhibitory concentration (IC50) was 0.16 nM. Further, inhibition in series [2] was half-maximal at 0.12 nM (IC50). Besides, in series [3], the “Predicted Fmax [%] (maximum oral bioavailability) Human” value is listed as 84% and the “Predicted clearance [l/h/kg] Human” value is 0.21 L/h/kg. Further, in series [4], the “Predicted Fmax [%] (maximum oral bioavailability) Rat” value is recorded as 83% and the “Predicted clearance [l/h/kg] Rat” value is 0.7 L/h/kg. Also, in series [5], the solubility turned out to be 9 µg/mL (≈ 15.8 µM).

For `C[C@]12C[C@H](c3ccc(/C=C/CNC(=O)Nc4ccc(C(=O)O)cc4)cc3)C3=C4CCC(=O)C=C4CC[C@H]3[C@@H]1CC[C@@]2(O)C(F)(F)C(F)(F)F` [Example 56, 4-(3-{(E)-3-[4-((8S,11R,13S,14S,17S)-17-hydroxy-13-methyl-3-oxo-17-pentafluoroethyl-2,3,6,7,8,11,12,13,14,15,16,17-dodecahydro-1H-cyclopenta[a]phenanthren-11-yl)phenyl]allyl}ureido)benzoic acid], the half-maximal inhibitory concentration (IC50) in series [1] was 0.9 nM; in series [2], 1.9 nM.

In the case of `C=CCNC(=O)NC/C=C/c1ccc([C@H]2C[C@@]3(C)[C@@H](CC[C@@]3(O)C(F)(F)C(F)(F)F)[C@@H]3CCC4=CC(=O)CCC4=C32)cc1` [Example 57, 1-allyl-3-{(E)-3-[4-((8S,11R,13S,14S,17S)-17-hydroxy-13-methyl-3-oxo-17-pentafluoroethyl-2,3,6,7,8,11,12,13,14,15,16,17-dodecahydro-1H-cyclopenta[a]phenanthren-11-yl)phenyl]allyl}urea], the IC50 was 0.09 nM in series [1] and 0.1 nM in series [2].

For `C[C@]12C[C@H](c3ccc(CO)cc3)C3=C4CCC(=O)C=C4CC[C@H]3[C@@H]1CC[C@@]2(O)C(F)(F)C(F)(F)F` [Ref. 1, (8S,11R,13S,14S,17S)-17-hydroxy-11-[4-(hydroxymethyl)phenyl]-13-methyl-17-pentafluoroethyl-1,2,6,7,8,11,12,13,14,15,16,17-dodecahydrocyclopenta[a]phenanthren-3-one, reference compound], the concentration for half-maximal inhibition (IC50) was determined as 0.7 nM in series [1] and 0.8 nM in series [2]. Besides, the “Predicted clearance [l/h/kg] Human” value in series [3] is 0.7 L/h/kg. In addition, the “Predicted clearance [l/h/kg] Rat” value in series [4] is 0.8 L/h/kg.
